From patent publication US9074014B2 (Ipsen Pharma S.A.S., priority 2008, dated 2015)
Where no end group is shown, it is not given here. [ ]: non-standard residue; d: D form. Ac6c = NC1(C(=O)O)CCCCC1; Nle = CCCC[C@H](N)C(=O)O; Ac5c = NC1(C(=O)O)CCCC1; Aib = CC(C)(N)C(=O)O

How the values were obtained:
[1] = Rat plasma half-life assay; format: in vitro ADME; conditions: rat plasma, 37° C., LC-MS; read-out: Rat Plasma T½ (converted)
[2] = In vivo insulin secretion in normal rats; set-up: species or system Sprague Dawley rats; conditions: fasted male rats, iv compound with glucose 1 g/kg, samples to 20 minutes
Method: D. Determination of In Vivo Insulin Secretion in Normal Rats
Male Sprague Dawley rats with a body weight of approximately 275-300 g were used as experimental subjects. The day prior to the treatment, right atrial cannulae were implanted via the jugular vein under chlorohydrate. Each cannula was filled with 100 u/ml heparin saline and tied. The rats were fasted for approximately 18 hours prior to dosing with the compound or the vehicle (saline/0.25% BSA). The day of the experiment, aliquots of compound were thawed, brought to room temperature and vortexed thoroughly. A careful check was made for any sign of compound coming out of solution. 10 minutes prior to compound/glucose injection, a 500 μl blood sample was withdrawn and replaced with an equal volume of heparinized saline (10 u/ml). At time 0, a 500 μl blood sample was withdrawn through the cannula. Next, either the vehicle or the appropriate dose of the compound was injected into the cannula and pushed in with the glucose (1 g/kg) or vehicle solution. Finally, 500 μl of volume of heparinized saline (10 u/ml) was used to push in the remaining glucose through the cannula. Additional 500 μl blood samples were withdrawn at 2.5, 5, 10, and 20-minute post-glucose dosing; each immediately followed by a bolus, iv injection of 500 μl heparinized saline (10 u/ml) through the cannula. The plasma was collected from the blood samples by centrifugation, and stored at −20° C. until assay for insulin content. Numerical values of the total insulin secretion, which show the in vivo effects of the compounds of Examples 105, 106, 118, and 119, are summarized in Table 3.

[3] = Human plasma half-life assay; format: in vitro ADME; conditions: human plasma, 37° C., LC-MS; read-out: Human Plasma T½ (converted)
[4] = target: T1, human recombinant GIP receptor (Homo sapiens, UniProt P48546); test: In vitro hGIP receptor binding assay ([125I]GIP displacement, CHO-K1 membranes)
T1 construct: expressed in transfected cells; host or cells: CHO-K1 clonal cells (membranes)
T1 sequence (P48546 22-466): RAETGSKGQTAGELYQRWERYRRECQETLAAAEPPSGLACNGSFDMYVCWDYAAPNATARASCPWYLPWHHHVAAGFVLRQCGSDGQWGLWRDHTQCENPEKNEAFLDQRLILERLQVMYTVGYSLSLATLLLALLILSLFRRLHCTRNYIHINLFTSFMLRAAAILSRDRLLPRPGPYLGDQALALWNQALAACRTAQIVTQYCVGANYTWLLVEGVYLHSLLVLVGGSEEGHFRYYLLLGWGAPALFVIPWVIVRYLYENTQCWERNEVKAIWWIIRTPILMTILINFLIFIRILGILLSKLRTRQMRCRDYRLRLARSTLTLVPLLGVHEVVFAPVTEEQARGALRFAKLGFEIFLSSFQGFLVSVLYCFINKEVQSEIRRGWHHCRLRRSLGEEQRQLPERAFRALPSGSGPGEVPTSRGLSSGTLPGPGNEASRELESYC
From the text: A. In Vitro hGIP Receptor Binding Assay

Row | Compound | half-life at 0.1 mg/ml [1] | AUC (total insulin secretion) [2] | half-life at 0.1 mg/ml [3] | Ki [4]
1 | CC[C@H](C)[C@H](NC(=O)[C@H](CCCCN)NC(=O)[C@H](CC(=O)O)NC(=O)[C@H](CCSC)NC(=O)[C@H](C)NC(=O)[C@@H](NC(=O)C1(NC(=O)[C@H](Cc2ccc(O)cc2)NC(=O)[C@H](CC(=O)O)NC(=O)[C@H](CO)NC(=O)[C@@H](NC(=O)[C@H](Cc2ccccc2)NC(=O)[C@@H](NC(=O)CNC(=O)[C@H](CCC(=O)O)NC(=O)[C@@H](C)NC(=O)[C@@H](N)Cc2ccc(O)cc2)[C@@H](C)O)[C@@H](C)CC)CCCC1)[C@@H](C)CC)C(=O)N[C@@H](Cc1c[nH]cn1)C(=O)N[C@@H](CCC(N)=O)C(=O)N[C@@H](CCC(N)=O)C(=O)N[C@@H](CC(=O)O)C(=O)N[C@@H](Cc1ccccc1)C(=O)N[C@H](C(=O)N[C@@H](CC(N)=O)C(=O)N[C@@H](Cc1c[nH]c2ccccc12)C(=O)N[C@@H](CC(C)C)C(=O)N[C@@H](CC(C)C)C(=O)N[C@@H](C)C(=O)N[C@@H](CCC(N)=O)C(=O)N[C@@H](CCCCN)C(=O)NCC(=O)N[C@@H](CCCCN)C(=O)N[C@@H](CCCCN)C(=O)N[C@@H](CC(N)=O)C(=O)N[C@@H](CC(=O)O)C(=O)N[C@@H](Cc1c[nH]c2ccccc12)C(=O)N[C@@H](CCCCN)C(=O)N[C@@H](Cc1c[nH]cn1)C(=O)N[C@@H](CC(N)=O)C(=O)N[C@H](C(=O)N[C@H](C(=O)N[C@@H](CCC(N)=O)C(=O)N[C@@H](Cc1c[nH]cn1)C(=O)O)[C@@H](C)O)[C@@H](C)CC)C(C)C [Example 105, (D-Ala^2, A5c^11, His^43)hGIP(1-43)-OH] | 6.9 h | 114.70 | 19.1 h | 
2 | CCCC[C@H](NC(=O)[C@H](C)NC(=O)[C@@H](NC(=O)C1(NC(=O)[C@H](Cc2ccc(O)cc2)NC(=O)[C@H](CC(=O)O)NC(=O)[C@H](CO)NC(=O)[C@@H](NC(=O)[C@H](Cc2ccccc2)NC(=O)[C@@H](NC(=O)CNC(=O)[C@H](CCC(=O)O)NC(=O)CNC(=O)[C@@H](N)Cc2ccc(O)cc2)[C@@H](C)O)[C@@H](C)CC)CCCC1)[C@@H](C)CC)C(=O)N[C@@H](CC(=O)O)C(=O)N[C@@H](CCCCN)C(=O)N[C@H](C(=O)N[C@@H](Cc1c[nH]cn1)C(=O)N[C@@H](CCC(N)=O)C(=O)N[C@@H](CCC(N)=O)C(=O)N[C@@H](CC(=O)O)C(=O)N[C@@H](Cc1ccccc1)C(=O)N[C@H](C(=O)N[C@@H](CC(N)=O)C(=O)N[C@@H](Cc1c[nH]c2ccccc12)C(=O)N[C@@H](CC(C)C)C(=O)N[C@@H](CC(C)C)C(=O)N[C@@H](C)C(=O)N[C@@H](CCC(N)=O)C(=O)N[C@@H](CCCCN)C(=O)NCC(=O)N[C@@H](CCCCN)C(=O)N[C@@H](CCCCN)C(=O)N[C@@H](CC(N)=O)C(=O)N[C@@H](CC(=O)O)C(=O)N[C@@H](Cc1c[nH]c2ccccc12)C(=O)N[C@@H](CCCCN)C(=O)N[C@@H](Cc1c[nH]cn1)C(=O)N[C@@H](CC(N)=O)C(=O)N[C@H](C(=O)N[C@H](C(=O)N[C@@H](CCC(N)=O)C(=O)N[C@@H](Cc1c[nH]cn1)C(=O)O)[C@@H](C)O)[C@@H](C)CC)C(C)C)[C@@H](C)CC [Example 118, (Gly^2, A5c^11, Nle^14, His^43)hGIP(1-43)-OH] | 11.2 h | 88.22 | > 42 h | 0.87 nM
3 | CCCC[C@H](NC(=O)[C@H](C)NC(=O)[C@@H](NC(=O)C1(NC(=O)[C@H](Cc2ccc(O)cc2)NC(=O)[C@H](CC(=O)O)NC(=O)[C@H](CO)NC(=O)[C@@H](NC(=O)[C@H](Cc2ccccc2)NC(=O)[C@@H](NC(=O)CNC(=O)[C@H](CCC(=O)O)NC(=O)[C@@H](C)NC(=O)[C@@H](N)Cc2ccc(O)cc2)[C@@H](C)O)[C@@H](C)CC)CCCC1)[C@@H](C)CC)C(=O)N[C@@H](CC(=O)O)C(=O)N[C@@H](CCCCN)C(=O)N[C@H](C(=O)N[C@@H](Cc1c[nH]cn1)C(=O)N[C@@H](CCC(N)=O)C(=O)N[C@@H](CCC(N)=O)C(=O)N[C@@H](CC(=O)O)C(=O)N[C@@H](Cc1ccccc1)C(=O)N[C@H](C(=O)N[C@@H](CC(N)=O)C(=O)N[C@@H](Cc1c[nH]c2ccccc12)C(=O)N[C@@H](CC(C)C)C(=O)N[C@@H](CC(C)C)C(=O)N[C@@H](C)C(=O)N[C@@H](CCC(N)=O)C(=O)N[C@@H](CCCCN)C(=O)NCC(=O)N[C@@H](CCCCN)C(=O)N[C@@H](CCCCN)C(=O)N[C@@H](CC(N)=O)C(=O)N[C@@H](CC(=O)O)C(=O)N[C@@H](Cc1c[nH]c2ccccc12)C(=O)N[C@@H](CCCCN)C(=O)N[C@@H](Cc1c[nH]cn1)C(=O)N[C@@H](CC(N)=O)C(=O)N[C@H](C(=O)N[C@H](C(=O)N[C@@H](CCC(N)=O)C(=O)N[C@@H](Cc1c[nH]cn1)C(=O)O)[C@@H](C)O)[C@@H](C)CC)C(C)C)[C@@H](C)CC [Example 119, (D-Ala^2, A5c^11, Nle^14, His^43)hGIP(1-43)-OH] | 15.4 h | 167.48 | 35.7 h | 
4 | Y[Aib]EGTFISDYSIA[Ac6c]DKIHQQDFVNWLLAQKGKKNDWKHNITQ-OH [Example 42, (Aib^2, A6c^14)hGIP(1-42)-OH] | 6.2 h |  | 10.6 h | 0.07 nM
5 | Y[Aib]EGTFISDY[Aib]IA[Ac6c]DKIHQQDFVNWLLAQKGKKNDWKHNITQ-OH [Example 41, (Aib^2, 11, A6c^14)hGIP(1-42)-OH] | 13.3 h |  | 15.9 h | 0.73 nM
6 | Y[Aib]EGTF[Ac6c]SDYSIAMDKIHQQDFVNWLLAQKGKKNDWKHNITQ-OH [Example 43, (Aib^2, A6c^7)hGIP(1-42)-OH] | 7.7 h |  | 8.8 h | 0.3 nM
7 | Y[Aib]EGTF[Ac6c]SDYSIAMDKIHQQDFVNWLLAQKGKKNDWKHNI[Aib]Q-OH [Example 23, (Aib^2, 41, A6c^7)hGIP(1-42)-OH] | 6.7 h |  | > 48 h | 0.87 nM
8 | Y[Aib]EGTF[Ac6c]SDYSI[Aib][Nle]DKIHQQDFVNWLLAQKGKKNDWKHNITQ-OH [Example 21, (Aib^2, 13, A6c^7, Nle^14)hGIP(1-42)-OH] | 12.3 h |  | > 48 h | 0.3 nM
9 | Y[dA]EGTFISDY[Ac5c]IAMDKIHQQDFVNWLLAQKGKKNDWKHNI[Ac5c]Q-OH [Example 106, (D-Ala^2, A5c^11, 41)hGIP(1-42)-OH] | 9.2 h | 161.73 | > 55 h | 
